# ChEMBL document CHEMBL5107953, “SAR study of 4-arylazo-3,5-diamino-1H-pyrazoles: identification of small molecules that induce dispersal of Pseudomonas aeruginosa biofilms” (2021)
# System: Pseudomonas aeruginosa
# Test: Anti-biofilm activity against Pseudomonas aeruginosa PAO1 harboring wspF gene mutation assessed as reduction on c-di-GMP level by measuring GFP fluorescence at 100 uM incubated for 24 hrs […]
# Type: functional
# Set-up: scale not given: the % may be the effect or the level left
row,Compound,Activity
1,COc1ccc(NN=C2C(N)=NN=C2N)cc1,0%
2,N=C1NN=C(N)/C1=N/Nc1cc(F)ccc1F,65%
3,N=C1/C(=N\Nc2ccccc2F)C(N)=NN1c1ccc(S(N)(=O)=O)cc1,0%
4,N=C1NN=C(N)/C1=N/Nc1ccccc1O,55%
5,NC1=NNC(=O)/C1=N\Nc1ccccc1F,0%
6,N=C1NN=C(N)/C1=N/Nc1c(O)cccc1F,75%
7,N=C1NN=C(N)/C1=N/Nc1ccc(F)cc1F,41%
8,N=C1ON=C(N)/C1=N/Nc1c(F)cccc1F,0%
9,N=C1/C(=N\Nc2ccccc2F)C(N)=NN1CCO,0%
10,N=C1/C(=N\Nc2ccccc2F)C(N)=NN1c1ccc(F)cc1,0%
11,N=C1/C(=N\Nc2ccccc2F)C(N)=NN1c1ccc(C(=O)O)cc1,0%
12,N=C1NN=C(N)C1c1ccc2ccccc2n1 (stereo unspecified),0%
13,N=C1NN=C(N)/C1=N/Nc1cc(Br)cc(Br)c1,0%
14,CC(=O)/N=C1\NN=C(NC(C)=O)\C1=N\Nc1ccccc1F,0%
15,CC(=O)NC1=NN(C(C)=O)C(=N)/C1=N\Nc1ccccc1F,0%
16,Cc1cccc(F)c1N/N=C1\C(=N)NN=C1N,0%
17,NC1=NOC(=O)/C1=N\Nc1ccccc1F,0%
18,N=C1NN=C(N)/C1=N/Nc1cc(F)cc(F)c1,35%
19,N=C1NN=C(N)/C1=N/Nc1c(F)cccc1Br,0%

row,Compound,Activity
1,N=C1ON=C(N)/C1=N/Nc1cc(F)ccc1F,0%
2,N=C1NN=C(N)/C1=N/Nc1ccccc1,71%
3,N=C1ON=C(N)/C1=N/Nc1c(O)cccc1F,0%
4,N=C1NN=C(N)/C1=N/Nc1ccncc1F,0%
5,N=C1/C(=N\Nc2ccccc2F)C(N)=NN1S(=O)(=O)c1ccc(N)cc1,0%
6,N=C1NN=C(N)/C1=N/Nc1cccnc1F,13%
7,NNc1ccccc1F,0%
8,N=C1/C(=N\Nc2ccccc2F)C(N)=NN1Cc1ccccc1,0%
9,N=C1NN=C(N)/C1=N/Nc1ccccc1C(F)(F)F,0%
10,N=C1NN=C(N)/C1=N/Nc1ccccc1Br,0%
11,N=C1NN=C(N)/C1=N/Nc1c(O)cccc1O,15%
12,N=C1NN=C(N)/C1=N/Nc1cccc(F)c1F,48%
13,N=C1NN=C(N)/C1=N/Nc1ccc(F)c(F)c1F,0%
14,N=C1/C(=N\Nc2ccccc2F)C(N)=NN1C(=O)c1ccccc1,0%
15,N=C1NN=C(N)/C1=N/Nc1ccccc1I,0%
16,N=C1NN=C(N)/C1=N/Nc1ccccc1Cl,0%
17,N=C1ON=C(N)/C1=N/Nc1ccccc1F,0%
18,N=C1NN=C(N)/C1=N/Nc1cc(Br)ccc1Br,0%
19,Cc1ccc(N/N=C2\C(=N)NN=C2N)c(F)c1,0%

row,Compound,Activity
1,O=C1NNC(=O)C1=NNc1ccccc1F,0%
2,N=C1NN=C(N)/C1=N/Nc1ccccc1N,0%
3,N=C1NN=C(N)/C1=N/Nc1ccc(F)cc1,44%
4,N=C1ONC(=O)/C1=N\Nc1ccccc1F,0%
5,N=C1NN=C(N)/C1=N/Nc1cccc(O)c1,0%
6,N=C1/C(=N\Nc2ccccc2F)C(N)=NN1C(=O)c1ccncc1,40%
7,N=C1NN=C(N)/C1=N/Nc1cc(Br)ccc1F,0%
8,N=C1NN=C(N)/C1=N/Nc1c(Br)cccc1Br,0%
9,COc1ccccc1N/N=C1\C(=N)NN=C1N,0%
10,N=C1NN=C(N)/C1=N/Nc1c(F)cccc1F,77%
11,N=C1NN=C(N)/C1=N/Nc1c(F)ccc(F)c1F,61%
12,N=C1NN=C(N)/C1=N/Nc1c(F)cc(F)cc1F,30%
13,N=C1NN=C(N)/C1=N/Nc1ccccc1F,83%
14,N=C1NN=C(N)/C1=N/Nc1cccc(F)c1,73%
15,N=C1NN=C(N)/C1=N/Nc1cc(F)ccc1Br,0%
16,N=C1/C(=N\Nc2ccccc2F)C(N)=NN1S(=O)(=O)c1ccccc1,0%
17,N=C1ON=C(N)/C1=N/Nc1ccccc1O,0%
18,O=C1NOC(=O)/C1=N\Nc1ccccc1F,0%
